What all share (type): biochemical
The target in one test is T1, KDM6B (JMJD3) (Homo sapiens, UniProt O15054).
T1 construct: 1043-end; purchased BPS; host or cells: Bac (baculovirus system)
Briefly: Histone lysine demethylase AlphaLISA assay, KDM6B. Conditions: read-out: KDM6B HDME Inhibition IC50. Here is the method:
(§1) Assays are performed analogously to the protocol described by PerkinElmer (Roy et al. PerkinElmer Technical Note: AlphaLISA #12, April 2011)
(§2) Enzymes are dissolved in enzyme buffer and incubated for 10 min before being added to 3% DMSO solutions of compounds in enzyme buffer. Incubated for another 10 minutes, before substrate solution is added and the reaction mixture is incubated at room temperature. 10 μL acceptor beads, suspended in Epigenetic Buffer (Perkin Elmer AL008) from stock, are added and the suspension is incubated in the dark at room temperature, before a suspension of streptavidin donor beads (Perkin Elmer 6760002) in Epigenetic Buffer is added. After incubation at room temperature in the dark the plates are read. […]
BK27M3: Biotin-ATKAAR(Kme3)SAPATGGVKKPHRY-NH2? (Caslo, Denmark) […]
(§3) Substrate Solution: Substrate, 25 μM L-Asc, and 10 μM α-KG in Buffer A.
On the technique in general: In Alpha technology, singlet oxygen from a donor bead excites a nearby acceptor bead.

In the next test the target is T2, KDM7 (PHF8) (Homo sapiens, UniProt Q9UPP1).
T2 construct: KDM7 (PHF8); BRIC; 1-1322; Bac
T2 sequence (Q9UPP1 37-440 limits assumed): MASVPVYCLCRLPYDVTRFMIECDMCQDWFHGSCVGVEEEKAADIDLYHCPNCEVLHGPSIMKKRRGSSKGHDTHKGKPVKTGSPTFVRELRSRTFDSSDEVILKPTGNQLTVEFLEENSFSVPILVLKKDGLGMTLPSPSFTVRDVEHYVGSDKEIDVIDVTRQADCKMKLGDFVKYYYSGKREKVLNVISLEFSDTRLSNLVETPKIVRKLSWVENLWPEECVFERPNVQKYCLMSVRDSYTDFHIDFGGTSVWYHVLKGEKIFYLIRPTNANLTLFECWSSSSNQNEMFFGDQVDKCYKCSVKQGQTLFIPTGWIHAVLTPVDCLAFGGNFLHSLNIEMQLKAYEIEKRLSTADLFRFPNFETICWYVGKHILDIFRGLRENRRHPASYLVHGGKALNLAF
Briefly: Histone lysine demethylase AlphaLISA assay, KDM7. Conditions: read-out: PHF8 HDME Inhibition IC50. The essentials:
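Steps: enzyme equilibrated 10 min in buffer; compounds in 3% DMSO solution added, 10 min; substrate mix added (peptide, 25 μM L-Asc, 10 μM α-KG), room temperature; acceptor beads, then streptavidin donor beads, dark incubations; plate read.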

The target of the next test is T3, KDM5C (JARID1C) (Homo sapiens, UniProt P41229).
T3 construct: 2-1560; purchased BPS; host or cells: Bac (baculovirus system)
T3 sequence (P41229 2-1560): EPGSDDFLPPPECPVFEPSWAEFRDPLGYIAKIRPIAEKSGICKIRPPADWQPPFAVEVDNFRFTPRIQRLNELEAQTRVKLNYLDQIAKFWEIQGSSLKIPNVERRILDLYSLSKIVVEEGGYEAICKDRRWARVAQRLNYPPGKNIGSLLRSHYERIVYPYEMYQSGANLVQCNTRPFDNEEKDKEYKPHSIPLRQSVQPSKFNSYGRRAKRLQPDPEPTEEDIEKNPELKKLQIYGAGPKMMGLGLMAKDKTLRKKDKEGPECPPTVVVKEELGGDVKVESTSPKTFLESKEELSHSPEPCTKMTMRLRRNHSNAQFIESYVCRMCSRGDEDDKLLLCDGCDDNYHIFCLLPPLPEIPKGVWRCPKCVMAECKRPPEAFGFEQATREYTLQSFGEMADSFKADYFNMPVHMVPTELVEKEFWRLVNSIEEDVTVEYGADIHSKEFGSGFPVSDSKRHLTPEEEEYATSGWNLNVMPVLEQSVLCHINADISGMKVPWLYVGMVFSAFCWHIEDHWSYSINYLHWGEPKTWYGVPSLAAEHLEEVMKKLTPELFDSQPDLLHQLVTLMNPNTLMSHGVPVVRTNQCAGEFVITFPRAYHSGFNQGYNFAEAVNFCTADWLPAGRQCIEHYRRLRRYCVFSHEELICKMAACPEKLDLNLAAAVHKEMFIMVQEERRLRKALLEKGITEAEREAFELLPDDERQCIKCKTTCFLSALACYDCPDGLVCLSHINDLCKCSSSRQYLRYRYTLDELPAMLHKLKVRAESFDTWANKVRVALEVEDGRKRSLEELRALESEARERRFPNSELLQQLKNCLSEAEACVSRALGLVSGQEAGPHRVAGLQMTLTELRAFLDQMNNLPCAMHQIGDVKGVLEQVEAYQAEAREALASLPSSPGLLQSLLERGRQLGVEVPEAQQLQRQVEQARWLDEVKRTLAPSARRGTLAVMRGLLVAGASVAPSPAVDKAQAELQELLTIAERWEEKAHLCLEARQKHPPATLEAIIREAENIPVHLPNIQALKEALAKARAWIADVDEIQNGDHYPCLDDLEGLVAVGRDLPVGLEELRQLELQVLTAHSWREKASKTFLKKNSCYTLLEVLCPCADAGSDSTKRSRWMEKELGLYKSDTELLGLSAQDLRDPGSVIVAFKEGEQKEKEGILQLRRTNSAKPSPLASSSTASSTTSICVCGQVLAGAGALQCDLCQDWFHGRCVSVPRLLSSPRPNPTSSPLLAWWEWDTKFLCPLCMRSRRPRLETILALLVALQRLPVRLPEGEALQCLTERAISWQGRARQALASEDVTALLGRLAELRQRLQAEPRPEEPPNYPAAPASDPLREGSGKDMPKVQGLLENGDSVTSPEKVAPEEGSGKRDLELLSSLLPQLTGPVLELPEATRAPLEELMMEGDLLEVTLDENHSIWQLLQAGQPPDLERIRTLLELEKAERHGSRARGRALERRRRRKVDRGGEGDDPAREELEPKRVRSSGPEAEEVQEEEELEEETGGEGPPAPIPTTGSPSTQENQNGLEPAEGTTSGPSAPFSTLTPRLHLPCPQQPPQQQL
Briefly: Histone lysine demethylase AlphaLISA assay, KDM5C. Conditions: read-out: KDM5C HDME Inhibition IC50. Here is the method:
as §1, §2
H3K4M3B: H-ART(Kme3)QTARKSTGGKAPRKQLA-NH-Biotin (Caslo, Denmark) […]
as §3

The next test concerns the target T4, KDM3A (JMJD1A) (Homo sapiens, UniProt Q9Y4C1).
T4 construct: 2-end; purchased BPS Bioscience, US; host or cells: Bac (baculovirus system)
T4 sequence (Q9Y4C1 2-1321 limits assumed): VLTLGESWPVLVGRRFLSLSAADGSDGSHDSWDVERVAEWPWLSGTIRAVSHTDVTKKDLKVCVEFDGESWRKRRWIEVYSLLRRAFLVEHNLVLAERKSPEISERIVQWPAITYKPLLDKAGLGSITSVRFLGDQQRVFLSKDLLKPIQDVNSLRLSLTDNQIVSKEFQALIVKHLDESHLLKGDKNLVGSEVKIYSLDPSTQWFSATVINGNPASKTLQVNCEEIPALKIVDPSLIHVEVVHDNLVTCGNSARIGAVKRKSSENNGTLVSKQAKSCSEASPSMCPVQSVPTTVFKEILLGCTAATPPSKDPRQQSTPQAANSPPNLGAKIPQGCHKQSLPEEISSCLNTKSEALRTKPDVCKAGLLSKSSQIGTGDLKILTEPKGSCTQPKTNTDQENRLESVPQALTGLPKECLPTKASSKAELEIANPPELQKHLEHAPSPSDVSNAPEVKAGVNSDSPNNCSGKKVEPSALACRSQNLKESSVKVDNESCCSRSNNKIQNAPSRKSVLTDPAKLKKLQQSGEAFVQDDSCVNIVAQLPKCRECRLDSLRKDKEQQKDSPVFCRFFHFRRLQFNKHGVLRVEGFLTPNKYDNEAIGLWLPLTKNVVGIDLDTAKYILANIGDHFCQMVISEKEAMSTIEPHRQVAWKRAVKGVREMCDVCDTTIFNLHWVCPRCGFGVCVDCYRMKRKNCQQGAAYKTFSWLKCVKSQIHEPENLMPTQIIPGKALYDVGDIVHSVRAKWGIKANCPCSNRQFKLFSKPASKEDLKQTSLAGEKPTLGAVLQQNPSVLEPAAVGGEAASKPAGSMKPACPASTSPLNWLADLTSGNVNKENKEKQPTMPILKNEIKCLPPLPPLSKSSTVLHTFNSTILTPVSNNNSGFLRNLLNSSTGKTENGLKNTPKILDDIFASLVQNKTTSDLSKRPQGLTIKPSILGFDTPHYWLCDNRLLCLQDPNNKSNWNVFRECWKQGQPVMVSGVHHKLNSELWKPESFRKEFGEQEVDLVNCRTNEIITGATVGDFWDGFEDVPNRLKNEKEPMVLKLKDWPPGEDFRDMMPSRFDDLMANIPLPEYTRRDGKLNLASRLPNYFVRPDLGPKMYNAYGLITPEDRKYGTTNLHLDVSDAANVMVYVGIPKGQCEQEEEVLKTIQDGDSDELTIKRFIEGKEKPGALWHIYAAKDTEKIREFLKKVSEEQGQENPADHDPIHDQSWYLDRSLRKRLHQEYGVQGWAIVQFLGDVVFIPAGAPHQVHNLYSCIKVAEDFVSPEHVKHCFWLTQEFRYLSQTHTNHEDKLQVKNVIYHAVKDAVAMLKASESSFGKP
Briefly: Histone lysine demethylase AlphaLISA assay, KDM3A. Conditions: read-out: KDM3 A HDME Inhibition IC50. Here is the method:
as §1, §2
BK9M2: Biotin-ARTKQTAR(KMe2)STGGKAPRKQ-NH2 (AnaSpec 64359) […]
as §3

For orientation: IC50 means the concentration at which inhibition is half-maximal.

T1 sequence (O15054 1043-1682 isoform O15054-1 limits assumed): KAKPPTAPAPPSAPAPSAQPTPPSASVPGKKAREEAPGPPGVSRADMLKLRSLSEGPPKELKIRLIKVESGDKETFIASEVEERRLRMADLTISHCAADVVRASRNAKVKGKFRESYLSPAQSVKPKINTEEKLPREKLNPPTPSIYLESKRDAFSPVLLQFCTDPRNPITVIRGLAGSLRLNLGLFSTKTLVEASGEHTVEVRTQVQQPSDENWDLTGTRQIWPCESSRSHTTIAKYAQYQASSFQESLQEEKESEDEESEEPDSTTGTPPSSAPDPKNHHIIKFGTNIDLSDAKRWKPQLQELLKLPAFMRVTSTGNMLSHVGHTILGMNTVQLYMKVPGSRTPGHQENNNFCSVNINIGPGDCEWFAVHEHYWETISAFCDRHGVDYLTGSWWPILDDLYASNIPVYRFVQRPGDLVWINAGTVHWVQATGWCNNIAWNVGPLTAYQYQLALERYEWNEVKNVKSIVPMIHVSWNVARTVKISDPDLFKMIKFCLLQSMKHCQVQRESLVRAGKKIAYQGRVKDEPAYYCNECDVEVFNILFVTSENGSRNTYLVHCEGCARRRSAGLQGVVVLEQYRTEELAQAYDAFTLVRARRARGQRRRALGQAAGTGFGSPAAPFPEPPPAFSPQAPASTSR

As for `CCSCCNCc1cc(/C=N/C2CC2)ccn1` [Compound 39, N-{[2-({[2-(ethylsulfanyl)-ethyl]amino}methyl)pyridin-4-yl]methylidene}-cyclopropanamine], the IC50 at KDM6B (JMJD3) was more than 2500 nM; at KDM7 (PHF8), less than 250 nM; on KDM5C (JARID1C), less than 250 nM; on KDM3A (JMJD1A) it was more than 2500 nM.

`CN1CCCC1CCNCc1cc(/C=N/C2CC2)ccn1` (stereo not drawn) [Compound 40, N-{[2-({[2-(l-methylpyrrolidin-2-yl)ethyl]amino}methyl)-pyridin-4-yl]methylidene}-cyclopropanamine]: the IC50 was more than 2500 nM at KDM6B (JMJD3), more than 2500 nM on KDM7 (PHF8), less than 250 nM on KDM5C (JARID1C) and more than 2500 nM at KDM3A (JMJD1A).

Consider `C(=N/C1CC1)/c1ccnc(CNCCCN2CCCC2)c1` [Compound 42, N-{[2-({[3-(pyrrolidin-1-yl)propyl]amino}-methyl)pyridin-4-yl]methylidene}-cyclopropanamine], for which the half-maximal inhibitory concentration (IC50) on KDM6B (JMJD3) was more than 2500 nM; at KDM7 (PHF8), more than 2500 nM; on KDM5C (JARID1C) it was less than 250 nM; at KDM3A (JMJD1A), more than 2500 nM.

Take `CN(C)C/C=C/CNCc1cc(/C=N/C2CC2)ccn1` [Compound 43, N-{[2-({[(2E)-4-(dimethylamino)but-2-en-1-yl]amino}-methyl)pyridin-4-yl]methylidene}-cyclopropanamine]: the IC50 was more than 2500 nM at KDM6B (JMJD3), 250 to 2500 nM on KDM7 (PHF8), less than 250 nM at KDM5C (JARID1C) and more than 2500 nM at KDM3A (JMJD1A).

With `C(=N\C1CC1)/c1ccnc(CNCCCCN2CCC2)c1` [Compound 44, N-{[2-({[4-(azetidin-1-yl)butyl]amino}methyl)-pyridin-4-yl]methylidene}-cyclopropanamine], the IC50 at KDM6B (JMJD3) is 250 to 2500 nM; on KDM7 (PHF8), more than 2500 nM; at KDM5C (JARID1C), less than 250 nM; on KDM3A (JMJD1A), more than 2500 nM.

For the compound `CN(C)CCCCNCc1cc(/C=N\C2CC2)ccn1` [Compound 45, N-{[2-({[4-(dimethylamino)butyl]-amino}methyl)-pyridin-4-yl]methylidene}-cyclopropanamine], the IC50 on KDM6B (JMJD3) is more than 2500 nM; at KDM7 (PHF8), more than 2500 nM; on KDM5C (JARID1C), less than 250 nM; on KDM3A (JMJD1A), more than 2500 nM.

As to `CN(C)CC1CCC(CNCc2cc(/C=N/C3CC3)ccn2)CC1` (centres unmarked) [Compound 46, N-[(2-{[({4-[(dimethylamino)-methyl]cyclohexyl}-methyl)amino]-methyl}pyridin-4-yl)methylidene]-cyclopropanamine], the IC50 is more than 2500 nM at KDM6B (JMJD3), more than 2500 nM on KDM7 (PHF8), less than 250 nM on KDM5C (JARID1C) and more than 2500 nM at KDM3A (JMJD1A).

With `CN(C)CCCCCNCc1cc(/C=N/C2CC2)ccn1` [Compound 47, N-{[2-({[5-(dimethylamino)-pentyl]amino}-methyl)pyridin-4-yl]methylidene}-cyclopropanamine], the IC50 on KDM6B (JMJD3) is more than 2500 nM; on KDM7 (PHF8), more than 2500 nM; on KDM5C (JARID1C), less than 250 nM; on KDM3A (JMJD1A), more than 2500 nM.

With `CCN(CC)CCCCNC(=O)CNCc1cc(/C=N/C2CC2)ccn1` [Compound 48, 2-[({4-[N-cyclopropyl-carboximidoyl]pyridin-2-yl}methyl)amino]-N-[4-(diethylamino)-butyl]acetamide], the IC50 at KDM6B (JMJD3) is more than 2500 nM; on KDM7 (PHF8), less than 250 nM; at KDM5C (JARID1C), less than 250 nM; at KDM3A (JMJD1A), more than 2500 nM.

With `O=C(CNCc1cc(/C=N/C2CC2)ccn1)N1CCC[C@@H]1CN1CCCC1` [Compound 49, 2-[({4-[N-cyclopropyl-carboximidoyl]pyridin-2-yl}methyl)amino]-1-[(2R)-2-(pyrrolidin-1-ylmethyl)pyrrolidin-1-yl]ethan-1-one], the IC50 at KDM6B (JMJD3) is more than 2500 nM; on KDM7 (PHF8), 250 to 2500 nM; on KDM5C (JARID1C) it was less than 250 nM; at KDM3A (JMJD1A), more than 2500 nM.

Consider `CCN(CCC#N)C(=O)CNCc1cc(/C=N/C2CC2)ccn1` [Compound 50, N-(2-cyanoethyl)-2-[({4-[N-cyclopropyl-carboximidoyl]-pyridin-2-yl}methyl)amino]-N-ethylacetamide], for which the half-inhibitory concentration (IC50) was more than 2500 nM at KDM6B (JMJD3), less than 250 nM at KDM7 (PHF8), less than 250 nM at KDM5C (JARID1C) and more than 2500 nM on KDM3A (JMJD1A).

Take `CCN1CCCC1CNC(=O)CNCc1cc(/C=N/C2CC2)ccn1` (centres unmarked) [Compound 51, 2-[({4-[N-cyclopropyl-carboximidoyl]-pyridin-2-yl}methyl)-amino]-N-[(1-ethylpyrrolidin-2-yl)methyl]acetamide]: the IC50 on KDM6B (JMJD3) is more than 2500 nM; on KDM7 (PHF8), 250 to 2500 nM; at KDM5C (JARID1C) it was less than 250 nM; on KDM3A (JMJD1A) it was more than 2500 nM.

With `O=C(CNCc1cc(/C=N/C2CC2)ccn1)NC1CCN(Cc2ccccc2)C1` (centres unmarked) [Compound 53, N-(1-benzylpyrrolidin-3-yl)-2-[({4-[N-cyclopropyl-carboximidoyl]pyridin-2-yl}methyl)amino]-acetamide], the IC50 was 250 to 2500 nM on KDM6B (JMJD3), less than 250 nM on KDM7 (PHF8), less than 250 nM at KDM5C (JARID1C) and 250 to 2500 nM at KDM3A (JMJD1A).

On to `CN1CCN(C(=O)CNCc2cc(/C=N/C3CC3)ccn2)CC1` [Compound 54, 2-[({4-[N-cyclopropyl-carboximidoyl]-pyridin-2-yl}methyl)amino]-1-(4-methylpiperazin-1-yl)ethan-1-one], for which the IC50 on KDM6B (JMJD3) was more than 2500 nM; on KDM7 (PHF8) it was more than 2500 nM; on KDM5C (JARID1C) it was less than 250 nM; on KDM3A (JMJD1A), more than 2500 nM.

For `O=C(CNCc1cc(/C=N/C2CC2)ccn1)N1CCC(Cc2ccccc2)CC1` [Compound 55, 1-(4-benzylpiperidin-1-yl)-2-[({4-[N-cyclopropyl-carboximidoyl]-pyridin-2-yl}methyl)amino]-ethan-1-one], the IC50 on KDM6B (JMJD3) is more than 2500 nM; on KDM7 (PHF8) it was 250 to 2500 nM; on KDM5C (JARID1C), 250 to 2500 nM; on KDM3A (JMJD1A), more than 2500 nM.

As for `C#CCN(C)C(=O)CNCc1cc(/C=N/C2CC2)ccn1` [Compound 56, 2-[({4-[N-cyclopropyl-carboximidoyl]-pyridin-2-yl}methyl)amino]-N-methyl-N-(prop-2-yn-1-yl)acetamide], the half-inhibitory concentration (IC50) at KDM6B (JMJD3) was more than 2500 nM; on KDM7 (PHF8) it was 250 to 2500 nM; on KDM5C (JARID1C) it was 250 to 2500 nM; at KDM3A (JMJD1A), more than 2500 nM.

Regarding `CCN(CC)C(=O)CNCc1cc(/C=N/CCC2CCCCC2)ccn1` [Compound 57, 2-[({4-[[(2-cyclohexylethyl)imino]-methyl]pyridin-2-yl}methyl)amino]-N,N-diethylacetamide], the IC50 on KDM6B (JMJD3) is more than 2500 nM; at KDM7 (PHF8), more than 2500 nM; on KDM5C (JARID1C) it was less than 250 nM; at KDM3A (JMJD1A) it was more than 2500 nM.

These data come from US9650339B2, “Inhibitors of histone demethylases” (Gilead Sciences, Inc., priority 2013, dated 2017).
